{"source": "patent US20230338375A1", "about": "“SUBSTITUTED PYRIDAZINONES FOR USE IN THE TREATMENT OF NEUROMUSCULAR DISEASES” (Edgewise Therapeutics, Inc., priority 2020, published 2023)", "origin": "cited, not measured here", "system": "embryos from zebrafish model of DMD", "settings": "Li and Arner, PLoSONE, 2015", "data": [{"smiles": "Cc1ccc(S(=O)(=O)NCc2ccccc2)cc1", "note": "[BTS, N-benzyl-p-tolyl-sulfonamide]", "values": [{"measurement": "protection from pathological muscle derangement", "result": "protect muscles from pathological muscle derangement"}]}]}
